Results published in paper PMC9828538, “Antigiardial Activity of Novel Guanidine Compounds” (Chemmedchem, 2022).
≈ marks a conversion by molar mass, not a printed value. Structures can show the parent of a compound that is named as a salt. Where two headings read alike, the source gives them in different places.

Tests used:
[1] = test system: Giardia duodenalis trophozoites (BAH2c2 strain); assay: Resazurin reduction assay on Giardia trophozoites in vitro; type: cell-based; conditions: for MIC: minimum inhibitory concentration, read-out: Antigiardial activity MIC (24 h); for Selectivity ratio: higher ratios = more selective; for Antigiardial activity MLC (24 h): minimum lethal concentration; for Antigiardial activity at 5 h: 25 μM
Text: (§1) Biology Materials and Methods:
Metronidazole was sourced from sigma.
Chemicals used for the culture of Giardia in vitro were sourced as follows: glucose and L-cysteine (ACROS organics, Thermo Fisher Scientific, Scoresby, Vic), Ammonium Iron (III) citrate, ascorbic Acid (Sigma -aldrich, Castle Hill, NSW), potassium dihydrogen orthophosphate (UNIVAR, Ingleburn, NSW), bovine bi le (Fluka analytical (BD)), di-potassium hydrogen orthophosphate (Fronine laboratory supplies, Riverstone, NSW).
G. duodenalis (BAH2c2 strain) was cultivated according to the method of Clark and Diamond in Keister’s modified TYI-S-33 medium, supplemented with heat inactivated foetal bovine serum (Hyclone™, Thermo Scientific, Scoresby, Vic) at 37°C in plastic 9 mL screw-capped test tubes (nunc). Subcultures were performed once a confluent monolayer was observed, approximately 2 – 3 times per week (Clark and Diamond, 2002).
(§2) CaCo-2 cells, a human cell line derived from a primary colonic tumour, were sourced from Cellbank Australia and were maintained in MEM supplemented with 2 mM glutamine, 1% non-essential amino acids and 10% FCS (Thermo Scientific). Cells were passaged when confluent, approximately 1-2 times per week. Vero cells were also obtained from Cellbank Australia and maintained as above.
(§3) In vitro drug efficacy assays
Resazurin Reduction Assay […]
tested to identify the IC50 and minimum lethal concentration (MLC). For all assays the media of confluent cultures was replaced with fresh media and the cultures were placed on ice for 40 minutes to detach trophozoites.
Trophozoites were enumerated using a haemocytometer and 50 000 trophozoites were added to each test well of a 96 well plate. Either single concentrations (final concentration 25 μM) for the screening assay or tripling dilutions […]
wells. The assays were repeated in triplicate with metronidazole and a DMSO (vehicle only) used as controls. Plates were incubated under anaerobic conditions (anaerogen sachet, Thermofisher scientific) for 5 or 24 hours at 37°C following which the viability of treated cells was determined using the resazurin reduction assay (Benere et al., 2007). The media was removed and replaced with an equal volume of warm PBS. Resazurin (Sigma) was then added at 10% of the total volume of the wells. Plates were further incubated for colour development and absorbance read at 570 nm and 630 nm. Resazurin reduction was calculated according to the following formula: […]
(§4) CaCo-2 or Vero cells, maintained as outlined above, were collected via trypsinisation and enumerated using trypan blue and a haemocytometer. Select analogues were prepared in DMSO so that the final concentration in the assay was 25 μM. 1 X 10^5 cells/ml were added to each assay with the appropriate drug dilution. Assays were completed in 96 well plates and incubated for 24 hours at 37°C, 5% CO2 in a humidified incubator. After incubation cells were […]
(§5) washed with warm PBS before the addition of 10% resazurin in PBS. Assays were incubated to allow colour development and absorbance read at 630 and 570nm. Activity of the analogues against mammalian cells was calculated according to the formula stated above.

CaCo-2 cells = conditions: human, 24 h, 25 μM
Description: (§6) Biology Materials and Methods: […]
as §2
(§7) In vitro drug efficacy assays […]
2007). The media was removed and replaced with an equal volume of warm PBS. Resazurin (Sigma) was then added at 10% of the total volume of the wells. Plates were further incubated for colour development and absorbance read at 570 nm and 630 nm. Resazurin reduction was calculated according to the following formula: […]
as §4, §5

Escherichia coli = assay: Antibacterial activity against gram negative bacteria (E. coli); type: cell-based
Description: as §1
Metronidazole was sourced from sigma. […]
hydrogen orthophosphate (Fronine laboratory supplies, Riverstone, NSW).
Subcultures were performed once a confluent
Scientific). […] Vero cells were also obtained from Cellbank Australia and maintained as above.
as §3
Resazurin Reduction Assay
For all assays the media of confluent cultures
2007). […] Resazurin (Sigma) was then
Plates were further incubated for colour development and absorbance read at 570 nm and 630 nm. Resazurin reduction was calculated according to the following formula: […]
broth for a random selection of compounds (Thermofisher Scientific). Compounds were diluted in DMSO to 100X […]
Cells were incubated for 18-24 hrs before interpretation of results. […]
blue and a haemocytometer. […]
was 25 μM. […] Assays were completed
After incubation cells were […]

Vero cells = assay: In vitro cytotoxicity, Vero cells; conditions: 25 μM, 24 h; for Toxicity (% growth control): Percent Vero cell growth; for Toxicity (Y/N): Vero cells
Description: as §6, §2, §7
The media was removed and replaced with an equal volume of warm PBS. Resazurin (Sigma) was then added at 10% of the total volume of the wells. Plates were further incubated for colour development and absorbance read at 570 nm and 630 nm. Resazurin reduction was calculated according to the following formula: […]
CaCo-2 or Vero cells, maintained as outlined above, were collected via trypsinisation and enumerated using trypan blue and a haemocytometer. Select analogues were prepared in DMSO so that the final concentration in the assay […]
in 96 well plates and incubated for 24 hours at 37°C, 5% CO2 in a humidified incubator. After incubation cells were […]
washed with warm PBS before the addition of 10% resazurin in PBS. Assays were incubated to allow colour development and absorbance read at 630 and 570nm. Activity of the analogues against mammalian cells was calculated according to the formula stated above. […]
reduction assay the mean and standard error of the mean was determined with each assay completed in triplicate.
The IC50 was calculated using the log (inhibitor) vs. normalised response – variable slope function in Graphpad […]

[2] = Giardia duodenalis, 24 h, read-out: Antigiardial activity IC50 (24 h)
[3] = Giardia duodenalis, 5 h, read-out: Antigiardial activity IC50 (5 h)
[4] = toxicity tested at 25 μM vs 5 h IC50, Table 4
[5] = Table 4 (toxic if >10 % cells affected)
[6] = toxicity tested at 25 μM vs 24 h IC50, Tables 1-3
[7] = 24 h, read-out: Antigiardial activity IC50 (24 h)
[8] = Tables 1-3 (toxic if >20 % cells affected)

SMILES	IC50 [1, 2] [nM]	MIC ([1]; Giardia duodenalis, 24 h) [µM]	other results
N=C(NN=Cc1cccc(F)c1)NN=Cc1cccc(F)c1 [Compound 10]	> 25000	> 25	–
CC(=O)Nc1cc(Cl)ccc1C=NNC(=N)NN=Cc1ccc(Cl)cc1NC(C)=O.Cl [Compound 40]	–	–	IC50 [1, 3]: 800 nM; Selectivity ratio [1, 4]: >31.3; Toxicity (% growth control) (CaCo-2 cells): 83.1±4.4%
Cl.N=C(NN=Cc1ccccc1Cl)NN=Cc1ccccc1Cl [Compound 12]	12400	25	Activity against gram negative bacteria / E. coli (Escherichia coli): no antibacterial activity
N=C(NN=Cc1cccc(Br)c1)NN=Cc1cccc(Br)c1 [Compound 9]	2900	25 (≈ 10.6 µg/mL)	–
Cl.N=C(NN=Cc1ccc(Cl)cc1Cl)NN=Cc1ccc(Cl)cc1Cl [Compound 34]	–	–	Selectivity ratio [1, 4]: >10.0; Toxicity (% growth control) (Vero cells): 55.8±4.3%; Toxicity (Y/N) (Vero cells; [5]): Y (compounds are indicated as toxic if >10 % cells are affected)
N=C(NN=Cc1ccc(SC(F)(F)F)cc1)NN=Cc1ccc(SC(F)(F)F)cc1 [Compound 32, 2,2′‐bis{[4‐(trifluoromethylsulfanyl)phenyl]methylene}carbonimidic dihydrazide hydrochloride]	200	–	–
N=C(NN=Cc1ccccc1O)NN=Cc1ccccc1O [Compound 29]	> 25000	–	–
Cl.N=C(NN=Cc1ccccc1-c1ccccc1)NN=Cc1ccccc1-c1ccccc1 [Compound 18]	2800	> 25	Selectivity ratio [1, 6]: >8.9; Toxicity (% growth control) (CaCo-2 cells): 75.4±3.4%
C#Cc1cccc(C=NNC(=N)NN=Cc2cccc(C#C)c2)c1 [Compound 23]	1200	25 (≈ 7.83 µg/mL)	–
CCCCc1ccc(C=NNC(=N)NN=Cc2ccc(CCCC)cc2)cc1 [Compound 20]	1900	8.3 (≈ 3.13 µg/mL)	–
Cl.N=C(NN=Cc1ccccc1Br)NN=Cc1ccccc1Br [Compound 11]	800	25	Selectivity ratio [1, 6]: >31.3; Toxicity (% growth control) (CaCo-2 cells): 79.1±2.3%; Activity against gram negative bacteria / E. coli (Escherichia coli): no antibacterial activity
Cc1ccccc1C=NNC(=N)NN=Cc1ccccc1C [Compound 16]	–	25 (≈ 7.33 µg/mL)	–
N=C(NN=Cc1ccc(-c2ccccc2)cc1)NN=Cc1ccc(-c2ccccc2)cc1 [Compound 17]	400	2.8 (≈ 1.17 µg/mL)	–
N=C(NN=Cc1ccc(O)cc1)NN=Cc1ccc(O)cc1 [Compound 27]	> 25000	–	–
COc1cccc(C=NNC(=N)NN=Cc2cccc(OC)c2)c1 [Compound 25]	> 25000	–	–
CCCc1ccc(C=NNC(=N)NN=Cc2ccc(CCC)cc2)cc1 [Compound 19]	800	8.3 (≈ 2.9 µg/mL)	–
CN(C)c1ccc(C=NN=C(N)NN=Cc2ccc(N(C)C)cc2)cc1 [Compound 33]	–	–	Antigiardial activity MLC (24 h) ([1]; 24 h): 25 µM; IC50 [1, 7]: 1100 nM

SMILES	IC50 [1, 2] [nM]	MIC ([1]; Giardia duodenalis, 24 h) [µM]	other results
N=C(NN=Cc1cccc(O)c1)NN=Cc1cccc(O)c1 [Compound 28]	> 25000	–	–
CC(C)c1ccc(C=NNC(=N)NN=Cc2ccc(C(C)C)cc2)cc1 [Compound 21]	1900	6.25 (≈ 2.18 µg/mL)	–
CC(C)(C)c1ccc(C=NNC(=N)NN=Cc2ccc(C(C)(C)C)cc2)cc1 [Compound 22]	3200	8.3 (≈ 3.13 µg/mL)	–
Cl.N=C(NN=Cc1cc(F)ccc1F)NN=Cc1cc(F)ccc1F [Compound 37]	–	–	Antigiardial activity at 5 h ([1]; 5 h): inactive
COc1cc(C=NNC(=N)NN=Cc2ccc(O)c(OC)c2)ccc1O [Compound 47]	–	–	IC50 [1, 3]: > 25000 nM
COc1cc(C=NNC(=N)NN=Cc2cc(Br)c(OC)c(OC)c2)cc(Br)c1OC.Cl [Compound 42]	–	–	IC50 [1, 3]: 2700 nM; Selectivity ratio [1, 4]: >9.3; Toxicity (Y/N) (Vero cells; [5]): Y^[e] (compounds are indicated as toxic if >10 % cells are affected)
N=C(NN=Cc1ccc(F)cc1)NN=Cc1ccc(F)cc1 [Compound 7]	6520	12.5 (≈ 3.77 µg/mL)	–
Cl.N=C(NN=Cc1c(F)c(F)c(F)c(F)c1F)NN=Cc1c(F)c(F)c(F)c(F)c1F [Compound 39]	–	–	Antigiardial activity at 5 h ([1]; 5 h): inactive
COc1ccc(C=NNC(=N)NN=Cc2ccc(OC)cc2)cc1.Cl [Compound 24]	5990	–	Selectivity ratio [1, 6]: >4.2; Toxicity (Y/N) (Vero cells; [8]): Y^[e] (compounds are indicated as toxic if >20 % cells are affected)
N=C(NN=Cc1cccc(Cl)c1)NN=Cc1cccc(Cl)c1 [Compound 8]	3500	6.25 (≈ 2.09 µg/mL)	–
COc1ccccc1C=NNC(=N)NN=Cc1ccccc1OC.Cl [Compound 26]	–	–	Antigiardial activity MLC (24 h) ([1]; 24 h): >25 µM; IC50 [1, 7]: > 25000 nM
COc1ccc(C=NNC(=N)NN=Cc2ccc(OC)c(OC)c2)cc1OC [Compound 44]	–	–	IC50 ([1]; 5 h, read-out: Antigiardial activity IC50 (5 h)): 24900 nM; IC50 [1, 3]: ≤ 25000 nM
Cl.N=C(NN=Cc1ccccc1F)NN=Cc1ccccc1F [Compound 13]	> 25000	> 25	Toxicity (% growth control) (Vero cells): 93.9±1.9%; Toxicity (Y/N) (Vero cells; [8]): N (compounds are indicated as toxic if >20 % cells are affected)
N=C(NN=Cc1ccc(OC(F)(F)F)cc1)NN=Cc1ccc(OC(F)(F)F)cc1 [Compound 30, 2,2′‐bis{[4‐(trifluoromethoxy)phenyl]methylene}carbonimidic dihydrazide hydrochloride]	200	–	–
Cc1ccc(C=NNC(=N)NN=Cc2ccc(C)cc2)cc1 [Compound 14]	–	25 (≈ 7.33 µg/mL)	–
Cc1cccc(C=NNC(=N)NN=Cc2cccc(C)c2)c1 [Compound 15]	4900	6.25 (≈ 1.83 µg/mL)	–
CSc1ccc(C=NNC(=N)NN=Cc2ccc(SC)cc2)cc1 [Compound 31]	900	–	–
